Earlier results as cited in patent US4944949A, “Pharmaceutical delivery systems” (priority 1986, dated 1990).
Like-named read-outs stand apart in the source and are kept apart here.

Key:
[1] = in vivo
[2] = for most frequent adverse effects: in vivo
[3] = for faecal blood loss with oral prostaglandin E2: oral PGE2 1 mg three or four times daily given with the drug
[4] = parts of drug dissolving in 10,000 parts of water

## O=C(O)c1ccccc1Nc1cccc(C(F)(F)F)c1 [Flufenamic acid]
other
  solubility in organic solvents: reasonably soluble in various organic solvents
[4]
  solubility in water: less than 1 part in 10,000 parts of water
[1]
  absorption: well absorbed
Plasma proteins
  bound to plasma proteins: extensively bound to plasma proteins
[2]
  most frequent adverse effects: gastrointestinal disturbances

## CC(C(=O)O)c1cccc(C(=O)c2ccccc2)c1 (centres unmarked) [Ketoprofen]
[2]
  most frequent adverse effects: gastrointestinal

## O=C(O)Cc1ccccc1Nc1c(Cl)cccc1Cl [Diclofenac]
other
  solubility in organic solvents: soluble in some organic solvents
water
  solubility in water: poorly soluble in water
[1]
  absorption: fairly well absorbed
[2]; % of cases
  Gastrointestinal disturbances / side effects reported: about 7%

## CCCCC1C(=O)N(c2ccccc2)N(c2ccccc2)C1=O [Phenylbutazone]
[1]
  absorption: readily absorbed
[2]
  most frequent adverse effects: nausea, vomiting and epigastric distress

## COc1ccc2c(c1)c(CC(=O)O)c(C)n2C(=O)c1ccc(Cl)cc1 [Indomethacin]
[3]; compared with controls
  increase in faecal blood loss: ~3 fold
[3]
  faecal blood loss with oral prostaglandin E2: reduced to control levels
other
  solubility in organic solvents: more soluble in simple organic solvents
Parts of water per part of drug
  parts of water in which drug is soluble: more than 10,000 parts of water
[1]
  absorption: readily absorbed
[2]
  most frequent adverse effects: gastrointestinal problems, headache and dizziness

## CC(C)Cc1ccc(C(C)C(=O)O)cc1 (centres unmarked) [Ibuprofen, ibuprofen]
other
  solubility in organic solvents: fairly soluble in simple organic solvents
[4]
  solubility in water: less than 1 part in 10,000 parts of water
water
  solubility in water: poorly soluble in water
[1]
  absorption: well absorbed
[2]
  most frequent adverse effects: gastrointestinal

## CC(C(=O)O)c1ccc(-c2ccccc2)c(F)c1 (centres unmarked) [Flurbiprofen]
other
  solubility in organic solvents: readily soluble in most organic solvents
[1]
  absorption: readily absorbed
Plasma proteins; plasma
  bound to plasma proteins: approximately 99%

## CC(=O)Oc1ccccc1C(=O)O [Aspirin]
[3]
  faecal blood loss with oral prostaglandin E2: reduced to control levels

## CC1=C(CC(=O)O)c2cc(F)ccc2/C1=C\c1ccc([S+](C)[O-])cc1 (centres unmarked) [Sulindac]
[1]
  absorption: incompletely absorbed from the gastrointestinal tract
[2]
  most frequent adverse effects: gastrointestinal, headache and dizziness

## CN1C(C(=O)Nc2ccccn2)=C(O)c2ccccc2S1(=O)=O [Piroxicam]
other
  solubility in organic solvents: soluble in some organic solvents
water
  solubility in water: poorly soluble in water
[1]
  absorption: well absorbed
Plasma proteins; plasma
  bound to plasma proteins: 99%
[2]
  most frequent adverse effects: high incidence of severe gastrointestinal side effects

## COc1ccc2cc([C@H](C)C(=O)O)ccc2c1 [Naproxen]
[2]
  most frequent adverse effects: gastrointestinal
